One may read the inhibition in vivo as the percentage by which the read-out fell short of the control. A higher inhibition in vivo goes with a response far below the control.

For the assay, the system named is PMA-induced oedema in mouse ear. The assay is described as follows: Acute contact dermatitis: inhibition of PMA/TPA-induced oedema in mouse ear. The assay is classed as in vivo. To be noted: 6 h, CD1 mice, 500 μg/ear topical in TPDS, 30 minutes before TPA 0.01% in acetone, ear weight difference after six hours vs TPA only. The protocol: The antiinflammatory activity has been evaluated as inhibition of PMA-induced oedema in mouse ear (Phorbol Myristate Acetate).
A) Acute contact dermatitis.
Groups of 5 CD1 mice (18-24 g) were used.
All the macrolide derivatives were dissolved in the Trans-phase Delivery System (TPDS) vehicle containing 10% benzyl alcohol, 40% acetone and 50% isopropanol.
15 microliters of the compounds (500 μg/ear), dissolved in TPDS, were applied topically onto the inner surface of an ear; after 30 minutes 12 microliters of a solution of acetate of tetradecanoyl-phorbol (TPA) with the concentration of 0.01% dissolved in acetone were applied onto the same area.
After six hours the animals were sacrified by inhalation of CO2.
The oedema level was calculated by detracting the weight of a defined portion of auricular ala of the not treated ear to the one of the treated controlateral ear. To determine the oedema remission level the weight difference of the groups treated with TPA+macrolides was compared with the ones of those treated with TPA only. The activity of the macrolides was measured by using the modified method of Zunic et coll. (1998): MDL (Lysyl) GDP, a non-toxil muramyl dipeptide derivative inhibits, cytokine production by activated macrophages and protects mice from phorbol ester-and oxazolone-induced inflammation (J. Invest Dermatol., 111(1), 77-82).
The data relating to erythromycin concern the treatment in single dose with 500 μg/ear.
Consider `CC[C@H]1OC(=O)[C@H](C)[C@@H](O[C@H]2C[C@@](C)(OC)[C@@H](O)[C@H](C)O2)[C@H](C)[C@@H](O[C@@H]2O[C@H](C)C[C@H](N(C)C)[C@H]2O)[C@](C)(O)C[C@@H](C)CN(C)[C@H](C)[C@@H](O)[C@]1(C)O` [Azithromycin, reference compound], for which the inhibition in vivo at 500 µg/ear came to 40%.
Next, `CC[C@H]1OC(=O)[C@H](C)[C@@H](O)[C@H](C)[C@@H](O[C@@H]2O[C@H](C)C[C@H](N(C)C(=O)COCc3cc(OC)ccn3)[C@H]2O)C(C)(O)C[C@@H](C)C(O)[C@H](C)[C@@H](O)[C@]1(C)O` (stereo partly drawn) [Compound 1]: 61.5%; `CC[C@H]1OC(=O)[C@H](C)[C@@H](O)[C@H](C)[C@@H](O[C@@H]2O[C@H](C)C[C@H](N(C)C(=O)Cc3ccccc3)[C@H]2O)C(C)(O)C[C@@H](C)[C@H](O)[C@H](C)[C@@H](O)[C@]1(C)O` (stereo partly drawn) [Compound 2]: 88.1%.
To `CC[C@H]1OC(=O)[C@H](C)[C@@H](O)[C@H](C)[C@@H](O[C@@H]2O[C@H](C)C[C@H](N(C)C(=O)c3ccccc3)[C@H]2O)C(C)(O)C[C@@H](C)[C@H](O)[C@H](C)[C@@H](O)[C@]1(C)O` (stereo partly drawn) [Compound 3] belongs 89.9%; to `CC[C@H]1OC(=O)[C@H](C)[C@@H](O)[C@H](C)[C@@H](O[C@@H]2O[C@H](C)C[C@H](N(C)C(=O)c3ccco3)[C@H]2O)C(C)(O)C[C@@H](C)[C@H](O)[C@H](C)[C@@H](O)[C@]1(C)O` (stereo partly drawn) [Compound 4], 64.4%; to `CC[C@H]1OC(=O)[C@H](C)[C@@H](O)[C@H](C)[C@@H](O[C@@H]2O[C@H](C)C[C@H](N(C)C(=O)Cc3cccs3)[C@H]2O)C(C)(O)C[C@@H](C)[C@H](O)[C@H](C)[C@@H](O)[C@]1(C)O` (stereo partly drawn) [Compound 5], 53.7%.
As for `CC[C@H]1OC(=O)[C@H](C)[C@@H](O)[C@H](C)[C@@H](O[C@@H]2O[C@H](C)C[C@H](N(C)C(=O)c3ccc(C)cc3)[C@H]2O)C(C)(O)C[C@@H](C)[C@H](O)[C@H](C)[C@@H](O)[C@]1(C)O` (stereo partly drawn) [Compound 6], the inhibition in vivo at 500 µg/ear stood at 77.8%.
`CC[C@H]1OC(=O)[C@H](C)[C@@H](O)[C@H](C)[C@@H](O[C@@H]2O[C@H](C)C[C@H](N(C)C(=O)c3cccnc3)[C@H]2O)C(C)(O)C[C@@H](C)[C@H](O)[C@H](C)[C@@H](O)[C@]1(C)O` (stereo partly drawn) [Compound 7] showed an inhibition in vivo at 500 µg/ear of 46.1%.
To `CC[C@H]1OC(=O)[C@H](C)[C@@H](O)[C@H](C)[C@@H](O[C@@H]2O[C@H](C)C[C@H](N(C)C(=O)CSc3ccccc3)[C@H]2O)C(C)(O)C[C@@H](C)[C@H](O)[C@H](C)[C@@H](O)[C@]1(C)O` (stereo partly drawn) [Compound 8] belongs 57.6%; to `CCCCCCCC(=O)N(C)[C@H]1C[C@@H](C)O[C@@H](O[C@@H]2[C@@H](C)[C@H](O)[C@@H](C)C(=O)O[C@H](CC)[C@@](C)(O)[C@H](O)[C@@H](C)[C@@H](O)[C@H](C)CC2(C)O)[C@@H]1O` (stereo partly drawn) [Compound 9], 74.2%.
To `CC[C@H]1OC(=O)[C@H](C)[C@@H](O)[C@H](C)[C@@H](O[C@@H]2O[C@H](C)C[C@H](N(C)C(=O)C3CCCCC3)[C@H]2O)C(C)(O)C[C@@H](C)[C@H](O)[C@H](C)[C@@H](O)[C@]1(C)O` (stereo partly drawn) [Compound 10] belongs 89.2%.
To `CC[C@H]1OC(=O)[C@H](C)[C@@H](O)[C@H](C)[C@@H](O[C@@H]2O[C@H](C)C[C@H](N(C)S(C)(=O)=O)[C@H]2O)C(C)(O)C[C@@H](C)[C@H](O)[C@H](C)[C@@H](O)[C@]1(C)O` (stereo partly drawn) [Compound 11] belongs 55.3%.
In turn, `CC[C@H]1OC(=O)[C@H](C)[C@@H](O)[C@H](C)[C@@H](O[C@@H]2O[C@H](C)C[C@H](N(C)S(=O)(=O)c3ccc(C)cc3)[C@H]2O)C(C)(O)C[C@@H](C)[C@H](O)[C@H](C)[C@@H](O)[C@]1(C)O` (stereo partly drawn) [Compound 12] came in with an inhibition in vivo at 500 µg/ear of 72.2%.
Molecule `CCNC(=O)N(C)[C@H]1C[C@@H](C)O[C@@H](O[C@@H]2[C@@H](C)[C@H](O)[C@@H](C)C(=O)O[C@H](CC)[C@@](C)(O)[C@H](O)[C@@H](C)[C@@H](O)[C@H](C)CC2(C)O)[C@@H]1O` (stereo partly drawn) [Compound 13] returned an inhibition in vivo at 500 µg/ear of 80.3%.
Next, `CC[C@H]1OC(=O)[C@H](C)[C@@H](O)[C@H](C)[C@@H](O[C@@H]2O[C@H](C)C[C@H](N(C)C(=O)Nc3ccccc3)[C@H]2O)C(C)(O)C[C@@H](C)[C@H](O)[C@H](C)[C@@H](O)[C@]1(C)O` (stereo partly drawn) [Compound 14]: 89.9%.
To `CC[C@H]1OC(=O)[C@H](C)[C@@H](O)[C@H](C)[C@@H](O[C@@H]2O[C@H](C)C[C@H](N(C)C(=O)c3ccccc3)[C@H]2O)C(C)(OC)C[C@@H](C)C(=O)[C@H](C)[C@@H](O)[C@]1(C)O` (stereo partly drawn) [Compound 15] belongs 74.3%; to `CC[C@H]1OC(=O)[C@H](C)[C@@H](O)[C@H](C)[C@@H](O[C@@H]2O[C@H](C)C[C@H](N(C)C(=O)c3ccc(F)cc3)[C@H]2O)C(C)(OC)C[C@@H](C)C(=O)[C@H](C)[C@@H](O)[C@]1(C)O` (stereo partly drawn) [Compound 16], 81.1%; to `CC[C@H]1OC(=O)[C@H](C)[C@@H](O)[C@H](C)[C@@H](O[C@@H]2O[C@H](C)C[C@H](N(C)C(=O)C(C)(C)C)[C@H]2O)C(C)(O)C[C@@H](C)/C(=N\OC(=O)C(C)(C)C)[C@H](C)[C@@H](O)[C@]1(C)O` (stereo partly drawn) [Compound 17], 51.2%.
Next, `CC[C@H]1OC(=O)[C@H](C)[C@@H](O)[C@H](C)[C@@H](O[C@@H]2O[C@H](C)C[C@H](N(C)C(C)=O)[C@H]2O)C(C)(O)C[C@@H](C)/C(=N\OC(C)=O)[C@H](C)[C@@H](O)[C@]1(C)O` (stereo partly drawn) [Compound 18]: 49%; `CC[C@H]1OC(=O)[C@H](C)[C@@H](O)[C@H](C)[C@@H](O[C@@H]2O[C@H](C)C[C@H](N(C)C(=O)COC)[C@H]2O)C(C)(O)C[C@@H](C)/C(=N\O)[C@H](C)[C@@H](O)[C@]1(C)O` (stereo partly drawn) [Compound 19]: 86.1%.
As for `CC[C@H]1OC(=O)[C@H](C)[C@@H](O)[C@H](C)[C@@H](O[C@@H]2O[C@H](C)C[C@H](N(C)C(=O)c3ccc(OC)cc3)[C@H]2O)C(C)(O)C[C@@H](C)/C(=N\O)[C@H](C)[C@@H](O)[C@]1(C)O` (stereo partly drawn) [Compound 20], the inhibition in vivo at 500 µg/ear was 83.2%.
Next, `CC[C@H]1OC(=O)[C@H](C)[C@@H](O)[C@H](C)[C@@H](O[C@@H]2O[C@H](C)C[C@H](N(C)C(=O)c3ccc(OC)cc3)[C@H]2O)C(C)(O)C[C@@H](C)/C(=N\OC(=O)c2ccc(OC)cc2)[C@H](C)[C@@H](O)[C@]1(C)O` (stereo partly drawn) [Compound 21]: 53.3%; `CC[C@H]1OC(=O)[C@H](C)[C@@H](O)[C@H](C)[C@@H](O[C@@H]2O[C@H](C)C[C@H](N(C)C(=O)c3cccnc3)[C@H]2O)C(C)(O)C[C@@H](C)/C(=N\O)[C@H](C)[C@@H](O)[C@]1(C)O` (stereo partly drawn) [Compound 22]: 74.3%.
Next, `CC[C@H]1OC(=O)[C@H](C)[C@@H](O)[C@H](C)[C@@H](O[C@@H]2O[C@H](C)C[C@H](N(C)C(=O)c3cccs3)[C@H]2O)C(C)(O)C[C@@H](C)/C(=N\O)[C@H](C)[C@@H](O)[C@]1(C)O` (stereo partly drawn) [Compound 23]: 86.8%; `CC[C@H]1OC(=O)[C@H](C)[C@@H](O)[C@H](C)[C@@H](O[C@@H]2O[C@H](C)C[C@H](N(C)C(=O)c3cccs3)[C@@H]2O)[C@](C)(O)C[C@H](C)/C(=N\OC(=O)c2cccs2)[C@@H](C)[C@H](O)[C@]1(C)O` [Compound 24]: 41.3%; `CC[C@H]1OC(=O)[C@H](C)[C@@H](O)[C@H](C)[C@@H](O[C@@H]2O[C@H](C)C[C@H](N(C)C(=O)Cc3cccs3)[C@H]2O)C(C)(O)C[C@@H](C)/C(=N\O)[C@H](C)[C@@H](O)[C@]1(C)O` (stereo partly drawn) [Compound 25]: 79.3%.
`CC[C@H]1OC(=O)[C@H](C)[C@@H](O)[C@H](C)[C@@H](O[C@@H]2O[C@H](C)C[C@H](N(C)C(=O)C(C)(C)C)[C@H]2O)C(C)(O)C[C@@H](C)/C(=N\O)[C@H](C)[C@@H](O)[C@]1(C)O` (stereo partly drawn) [Compound 26]: the inhibition in vivo at 500 µg/ear was 68.6%.
To `CC[C@H]1OC(=O)[C@H](C)[C@@H](O)[C@H](C)[C@@H](O[C@@H]2O[C@H](C)C[C@H](N(C)C(=O)Cc3cccs3)[C@H]2O)C(C)(O)C[C@@H](C)/C(=N\OC(=O)Cc2cccs2)[C@H](C)[C@@H](O)[C@]1(C)O` (stereo partly drawn) [Compound 27] belongs 61.4%.
As for `CC[C@H]1OC(=O)[C@H](C)[C@@H](O)[C@H](C)[C@@H](O[C@@H]2O[C@H](C)C[C@H](N(C)C(=O)c3cccnc3Cl)[C@H]2O)C(C)(O)C[C@@H](C)/C(=N\O)[C@H](C)[C@@H](O)[C@]1(C)O` (stereo partly drawn) [Compound 28], the inhibition in vivo at 500 µg/ear amounted to 81.7%.
Next, `CC[C@H]1OC(=O)[C@H](C)[C@@H](O[C@H]2C[C@@](C)(OC)[C@@H](O)[C@H](C)O2)[C@H](C)[C@@H](O[C@@H]2O[C@H](C)C[C@H](N(C)C)[C@H]2O)[C@](C)(O)C[C@@H](C)C(=O)[C@H](C)[C@@H](O)[C@]1(C)O` [Erythromycin, reference compound]: 42.5%.
